{"source": "patent US7074922B2", "about": "“Method for producing the tautomeric form of (1) of 2,4,6-trianilino-p-(carbo-1′-ethylhexyl-1′oxyl)-1, 3, 5-triazine” (BASF Aktiengesellschaft, priority 2002, dated 2006)", "test": "Storage stability of solutions in cosmetic oils (clouding and precipitation)", "type": "physicochemical", "settings": "after 2 days", "description": "Storage Stability of Solutions of the Tautomeric Form I in Cosmetic Oils\nBoth solutions were still clear after 2 days."}
{"compound": "CCCCC(CC)COC(=O)c1ccc(Nc2nc(Nc3ccc(C(=O)OCC(CC)CCCC)cc3)nc(Nc3ccc(C(=O)OCC(CC)CCCC)cc3)n2)cc1", "note": "(centres unmarked) [I, 2,4,6-trianilino-p-(carbo-2′-ethylhexyl-1′-oxy)-1,3,5-triazine]", "values": [{"measurement": "appearance of solution on storage", "setting": "solution in C8–C10-coconut fatty acid triglyceride", "value": "still clear"}, {"measurement": "appearance of solution on storage", "setting": "solution in cetylstearyl 2-ethylhexanoate", "value": "still clear"}]}
